Holding throughout (experiment): growth of human tumour cells (NCI), 48 h
In assay [1] the test system is COLO 205 colon.
In assay [2] the test system is BT-549 breast.
For assay [3], the system named is NCI-H460 lung.
Assay [4] has as its system EKVX NSCLC.
For assay [5], the system named is SN12C renal.
Assay [6] deals with KM12 colon.
The subject of assay [7] is M14 melanoma.
Assay [8] relates to HT29 colon.
The test system of assay [9] is T-47D breast.
Assay [10] concerns CCRF-CEM leukemia.

Several values for one entry are separate records, joined by “and”; a condition that tells them apart may be missing. Identical values can stand only once.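 48-hour exposure; five concentrations; linearly interpolated endpoints. GI50 is the concentration that inhibits growth by half. The concentration for full growth arrest is given as TGI.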 Where only a bound is given, the exact number is not on record here.

`NS(=O)(=O)c1ccc(N=Nc2ccc[nH]c2=O)cc1`: the TGI in assay [1], in assay [2], in assay [3], in [4], in assay [5] and in assay [6] was greater than 100 µM each time. Moreover, the TGI in assay [7] was greater than 100 µM; in assay [8], greater than 100 µM; in assay [9], greater than 100 µM; in [10], 74.6 µM.

As for `CCOc1cc(-c2nncn2C)ccc1Nc1ncc2cc(C)nc(NCC(C)(C)C)c2n1`, the GI50 is 1.4 µM in assay [1]; greater than 80.5 µM in [2]; 0.535 µM in [3]; greater than 100 µM in assay [5]; greater than 100 µM in [6]; greater than 100 µM in assay [7]. Besides, the GI50 is 1.78 µM in assay [8], 2.83 µM in assay [9] and 0.321 µM in assay [10]. Moreover, the TGI in [1], in assay [2], in [3], in [4], in [5] and in [6] was greater than 100 µM in each case. In addition, the TGI in assay [7], in assay [8], in [9] and in assay [10] was greater than 100 µM in each case.

Turning to `COc1cccc2c1C(=O)c1c(O)c3c(c(O)c1C2=O)C[C@@](O)(/C(CO)=N/NC(=O)CCCCCN1C(=O)C=CC1=O)C[C@@H]3O[C@H]1C[C@H](N)[C@H](O)[C@H](C)O1`, the GI50 is 0.8 µM in assay [1]; 1.21 µM in assay [2]; 0.0889 µM in [3]; 3.1 µM in [4]; 0.446 µM in [5]; 1.98 µM in assay [6]. Besides, the GI50 in assay [7] is 1.06 µM; in assay [8], 1.37 µM; in assay [9] it was 0.49 µM; in assay [10], 0.334 µM. For the same molecule, the TGI is 10.2 µM in assay [1]; 8.96 µM in assay [2]; 1.95 µM in assay [3]; greater than 75.9 µM in assay [4]; greater than 100 µM in assay [5]; greater than 100 µM in assay [6]. The TGI is 11 µM in [7], 13.2 µM in assay [8], 8.41 µM in assay [9] and greater than 100 µM in [10].

In the case of `Cc1ccc(/C=N/NC(=O)c2ccccc2Oc2ccccc2)o1`, the GI50 was 61.3 µM in [1]; 28.4 µM in assay [2]; 44.4 µM in [3]; 38.8 µM in [4]; 32.9 µM in assay [5]; 40 µM in assay [6]. Moreover, the GI50 in assay [7] was 40.5 µM; in [8] it was 63.8 µM; in [9] it was 34.9 µM; in assay [10] it was 30.9 µM. Also, the TGI in assay [1], in [2], in [3], in assay [4], in [5] and in assay [6] was greater than 100 µM throughout. For the same molecule, the TGI in assay [7], in assay [8], in assay [9] and in assay [10] was greater than 100 µM each time.

As to `CNC(=O)ON(C(C)=O)C(=O)NC`, the GI50 in assay [1] is > 70 µM and 47.5 µM; in [2] it was greater than 45.2 µM; in assay [4] it was 108 µM; in assay [7] it was greater than 83.2 µM; in assay [8] it was 94.1 µM; in assay [10], 20.1 µM and 6.17 µM. Also, the TGI in assay [1] was 142 µM; in assay [2], 60.5 µM; in assay [3] it was 220 µM; in [4], 241 µM; in assay [5], 166 µM; in assay [6], 166 µM. Further, the TGI in [7] is 41 µM; in assay [8] it was 242 µM; in assay [9] it was 33.5 µM; in assay [10], > 65.9 µM and 43 µM.

In the case of `N#C/C(=C\c1cc(O)c(O)c(O)c1)C(N)=O`, the TGI in assay [1], in [2], in [3], in assay [4], in [5] and in assay [6] was greater than 100 µM each time. Also, the TGI was greater than 100 µM in assay [7], greater than 100 µM in assay [8], greater than 100 µM in assay [9] and greater than 76.2 µM in assay [10].

For the molecule `CN1CCN(CCCNC(=O)c2c3c(n4ccccc24)C(=O)c2ncccc2C3=O)CC1`, the GI50 in assay [1] is 0.563 µM; in assay [2] it was 7.24 µM; in assay [3] it was 0.316 µM; in assay [4], 1.61 µM; in assay [5], 1.42 µM; in assay [6], 1.28 µM. In addition, the GI50 in assay [7] is 1.21 µM; in [8], 0.612 µM; in assay [9], 1.88 µM; in [10] it was 2.16 µM. Besides, the TGI was found to be 1.67 µM in assay [1]; 20.6 µM in [2]; 1.75 µM in assay [3]; 5.94 µM in [4]; 3.61 µM in [5]; 19.5 µM in [6]. For the same molecule, the TGI was 2.6 µM in assay [7], 2.96 µM in assay [8], 5.28 µM in assay [9] and greater than 27.8 µM in assay [10].

For the molecule `C/C=C(\N=C=S)C(=O)OC1C(COC(C)=O)OC([C@]2(O)CC(=O)C(=N)C(C(=O)O)=C2O)C(O)C1OC1CC(OC)C(O)([C@@H](C)OC(=O)[C@@H](C)CC)C(C)O1` (stereo not given in full), the TGI in [1] is 13.3 µM; in assay [2], 16.5 µM; in [3], 47.5 µM; in assay [4] it was 30.3 µM; in [5] it was 40 µM; in assay [6] it was 19.9 µM. Besides, the TGI is 30.9 µM in [7], 23.6 µM in [8], 42.1 µM in [9] and 7.45 µM in assay [10].

Consider `COC(=O)[C@]12CC[C@@H](C)[C@H](C)[C@@H]1C1=CC[C@@H]3[C@@]4(C)C(C=O)=C[C@@](C)(CO)[C@@H]4[C@H](O)C[C@@]3(C)[C@]1(C)CC2`, for which the GI50 in assay [1] is 2.17 µM; in [2], 3.27 µM; in assay [3] it was 3.03 µM; in [4], 4.03 µM; in [5] it was 4.85 µM; in assay [6], 4.02 µM. For the same molecule, the GI50 in assay [7] is 4.13 µM; in [8] it was 2.44 µM; in assay [9], 2.11 µM; in assay [10], 3.73 µM. For the same molecule, the TGI in [1] was found to be 4.93 µM; in assay [2], 14.1 µM; in assay [3] it was 9.6 µM; in assay [4], 16 µM; in assay [5], 17.3 µM; in assay [6] it was 15.3 µM. Further, the TGI in [7] came to 17.8 µM; in assay [8] it was 7.54 µM; in assay [9], 13.2 µM; in assay [10], 13.7 µM.

Source of the values: PubChem BioAssay (NCI).
